Data: PubChem BioAssay (NCI)
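The compound was tested at five concentrations on cells cultured in 96-well plates, with a 48-hour exposure period. TGI marks complete inhibition of growth.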

Experiments:
Experiment in all cases: NCI tumour cell line growth inhibition, 48 h
786-0 renal = system: 786-0 renal
A498 renal = system: A498 renal
A549 NSCLC = system: A549 NSCLC
ACHN renal = system: ACHN renal
CAKI-1 renal = system: CAKI-1 renal
CCRF-CEM leukemia = system: CCRF-CEM leukemia
COLO 205 colon = system: COLO 205 colon
DLD-1 colon = system: DLD-1 colon
DMS 114 small cell lung = system: DMS 114 small cell lung
DMS 273 small cell lung = system: DMS 273 small cell lung
EKVX NSCLC = system: EKVX NSCLC
HCC-2998 colon = system: HCC-2998 colon
HCT-116 colon = system: HCT-116 colon
HCT-15 colon = system: HCT-15 colon
HL-60(TB) leukemia = system: HL-60(TB) leukemia
HOP-62 NSCLC = system: HOP-62 NSCLC
HOP-92 NSCLC = system: HOP-92 NSCLC
HT29 colon = system: HT29 colon
IGROV1 ovarian = system: IGROV1 ovarian
K-562 leukemia = system: K-562 leukemia
KM12 colon = system: KM12 colon
LXFL 529 NSCLC = system: LXFL 529 NSCLC
M14 melanoma = system: M14 melanoma
M19-MEL melanoma = system: M19-MEL melanoma
MALME-3M melanoma = system: MALME-3M melanoma
MOLT-4 leukemia = system: MOLT-4 leukemia
NCI-H226 lung = system: NCI-H226 lung
NCI-H23 lung = system: NCI-H23 lung
NCI-H460 lung = system: NCI-H460 lung
NCI-H522 lung = system: NCI-H522 lung
OVCAR-3 ovarian = system: OVCAR-3 ovarian
OVCAR-4 ovarian = system: OVCAR-4 ovarian
OVCAR-5 ovarian = system: OVCAR-5 ovarian
OVCAR-8 ovarian = system: OVCAR-8 ovarian
RPMI-8226 leukemia = system: RPMI-8226 leukemia
RXF 393 renal = system: RXF 393 renal
RXF-631 renal = system: RXF-631 renal
SF-268 CNS = system: SF-268 CNS
SF-295 CNS = system: SF-295 CNS
SF-539 CNS = system: SF-539 CNS
SK-MEL-2 melanoma = system: SK-MEL-2 melanoma
SK-MEL-28 melanoma = system: SK-MEL-28 melanoma
SK-MEL-5 melanoma = system: SK-MEL-5 melanoma
SK-OV-3 ovarian = system: SK-OV-3 ovarian
SN12C renal = system: SN12C renal
SNB-19 CNS = system: SNB-19 CNS
SNB-75 CNS = system: SNB-75 CNS
SNB-78 CNS = system: SNB-78 CNS
SR leukemia = system: SR leukemia
SW-620 colon = system: SW-620 colon
U251 CNS = system: U251 CNS
UACC-257 melanoma = system: UACC-257 melanoma
UACC-62 melanoma = system: UACC-62 melanoma
UO-31 renal = system: UO-31 renal
HOP-18 NSCLC = system: HOP-18 NSCLC
KM20L2 colon = system: KM20L2 colon
LOX IMVI melanoma = system: LOX IMVI melanoma
TK-10 renal = system: TK-10 renal
XF 498 CNS = system: XF 498 CNS

Measured: TGI

Nc1c(-c2nc3ccccc3[nH]2)sc(=S)n1-c1ccccc1
81.2 µM: CCRF-CEM leukemia
70 µM: UACC-62 melanoma
86.5 µM: SR leukemia
45.8 µM: MOLT-4 leukemia
not listed: HOP-18 NSCLC | KM20L2 colon | LOX IMVI melanoma | TK-10 renal | XF 498 CNS
> 100 µM: all other assays above

N#CC12C3C4CC5C6C4C1C6C(O)(C53)N2Cc1ccccc1 (stereo not drawn)
not listed: M19-MEL melanoma | SNB-78 CNS
> 100 µM: all other assays above

c1ccc(N=C2c3ccccc3C3=NCCCN32)cc1
72.2 µM: HOP-92 NSCLC
96.8 µM: NCI-H522 lung
76.8 µM: SK-MEL-5 melanoma
not listed: HL-60(TB) leukemia | SK-OV-3 ovarian | SR leukemia | HOP-18 NSCLC
> 100 µM: all other assays above

O=[N+]([O-])C1C2C=CC(C2)[C@H]1c1ccccc1Cl (stereo partly drawn)
> 88.2 µM: OVCAR-5 ovarian
> 10 µM: CAKI-1 renal | HOP-62 NSCLC | OVCAR-4 ovarian
> 75.6 µM: HOP-92 NSCLC
92.2 µM: NCI-H226 lung
60.7 µM: SNB-75 CNS
> 92.5 µM: HL-60(TB) leukemia
97.7 µM: UO-31 renal
> 31.6 µM: IGROV1 ovarian | NCI-H522 lung | OVCAR-3 ovarian | SK-OV-3 ovarian | UACC-62 melanoma
not listed: DMS 114 small cell lung | M19-MEL melanoma
> 100 µM: all other assays above
